# Like-named read-outs stand apart in the source and are kept apart here.
# Legend:
# NF-κB = conditions: cited from earlier work
# cancer cells = test system: cancer cells; parameters: method as in PMID 30127485, PMID 22908556; conditions: cancer cells in vitro; cited from earlier work
# U-2 OS = assay: MTT viability test, osteosarcoma cells with wild-type p53 status; conditions: Homo sapiens, U2OS
# Protocol: (§6) Two osteosarcoma cell lines: U-2 OS (with wild-type p53 status) and SAOS-2 (p53 null cell line) were used to evaluate cytotoxic activity of 1 and 2. Doxorubicin was employed as a reference drug. Viability of the cells treated by 1 or 2 (concentration range 0.014–50.0 µM) for 24 and 48 h was assessed by thiazolyl blue tetrazolium bromide (MTT) test.
# (§7) Human osteosarcoma cell lines U-2 OS (ATCC HTB-96; wild-type p53 status) and SAOS-2 (ATCC HTB-85; p53 deletion) were cultured in McCoy’s 5A medium containing L-glutamine and supplemented with 10% FBS at 37 °C and in a humidified atmosphere with 5% CO2. […] After that, working solutions were diluted with culture media to the final 1× concentrations (0.014–50 μM).
# (§8) For the MTT assay, the osteosarcoma cells suspended in the nutrient medium were seeded into 96-well microtiter plates (density 1.0 × 10^4 per well) and preincubated for 24 h (37 °C, 5% CO2). Subsequently, the cells were treated with 1 or 2 at different concentrations (0.014–50 μM) and further cultivated for another 24 or 48 h. After that, MTT was added for 1 h at the final concentration of 500 ng/mL. The culture medium was removed and the formazan crystals were dissolved in isopropanol containing 40 mM HCl. Absorbance was measured using Tecan microplate reader at 570 nm with the reference wavelength of 650 nm. […] Data were analyzed using Origin software.
# [1] = test system: IL-8 secretion by LPS-stimulated human neutrophils; assay: IL-8 release, ELISA; format: cell-based; conditions: 0.5, 1.0 and 2.5 µM, 24 h after LPS stimulation
# Protocol: (§1) In response to stimulation with proinflammatory agents, e.g., LPS or f-MLP, human neutrophils excrete an array of cytokines and chemokines, including TNF-α, IL-1β, IL-8 and CCL2 [29, 30]. In the present study, neutrophils were pretreated with the examined compounds (1 or 2) before their priming with LPS. Levels of IL-1β, IL-8, TNF-α and CCL2 were determined in the culture medium, using ELISA, 24 h after LPS stimulation.
# (§2) Neutrophils (2 × 10^6) were cultured in 24-well plates in RPMI 1640 medium with 10% FBS, 10 mM HEPES and 2 mM L-glutamine, in the presence or absence of LPS (100 ng/mL) and in the absence or presence of 1 or 2 (final concentrations of the examined germacranolide in a range of 0.5–2.5 μM), at 37 °C with 5% CO2. The neutrophils were harvested after 24 h and centrifuged (2000 r.p.m., 10 min, 4 °C). The amount of released cytokines was measured by enzyme-linked immunosorbent assay (ELISA) following the manufacturer’s instructions (BD Biosciences, USA). The effects on IL-8, IL-1β, CCL2 and TNF-α production by the neutrophils were calculated by comparing the percentages of the released agents to the stimulated control without the tested compound.
# [2] = test system: IL-1β secretion by LPS-stimulated human neutrophils; assay: IL-1β release, ELISA; format: cell-based; conditions: 0.5, 1.0 and 2.5 µM, 24 h after LPS stimulation
# Protocol: as §1, §2
# [3] = test system: ROS release from f-MLP-stimulated human neutrophils; assay: ROS production, luminol-dependent chemiluminescence; format: cell-based; conditions: f-MLP stimulation, concentration range 1–2.5 μM
# Protocol: Activation of PMNs, either at a site of inflammation or induced in vitro by proinflammatory agents, results in an oxidative burst in these cells. The phenomenon is characterized by intense ROS generation and liberation of proteolytic enzymes from azurophilic granules. An effect of the sesquiterpene lactones 1 and 2 on ROS production in PMNs was assessed in response to N-formyl-Met-Leu-Phe (f-MLP) stimulation.
# ROS production was measured using luminol-dependent chemiluminescence test. A 70 μL aliquot of neutrophil suspension (3.5 × 10^5) in (Ca^2+)-free HBSS buffer, 50 μL of the tested compound solution and 50 μL of luminol (100 μM) were added to a well in a 96-well plate. ROS production was initiated by the addition of f-MLP (30 μL of 0.1 μg/mL solution) to obtain a total volume of 200 μL per well. Chemiluminescence changes were measured for 40 min, at 2 min intervals, in a microplate reader (37 °C). The background chemiluminescence produced by nonstimulated cells was also determined. The percentage of inhibition was calculated by comparison to the stimulated control without the tested compound, at the maximum luminescence.
# SAOS-2 = assay: MTT viability test, osteosarcoma cells with p53 deletion; conditions: Homo sapiens
# Protocol: as §6, §7, §8
# [4] = test system: human polymorphonuclear leukocytes (PMNs); assay: Cytotoxicity to neutrophils, propidium iodide staining and flow cytometry; format: cell-based; conditions: at 2.5 µM or lower concentrations, 24 h incubation
# Protocol: Cytotoxicity of 1 and 2 to human polymorphonuclear leukocytes (PMNs) was evaluated using propidium iodide (PI) staining and flow cytometry (FACS) analysis. The compounds were nontoxic in PMNs at 2.5 µM or lower concentrations (Figure 4).
# Cytotoxicity was assessed by a standard flow cytometric probe using propidium iodide (PI) staining. After 24 h of incubation in the absence or presence of the tested germacranolide (at concentrations of 0.5, 1.0, 2.5 and 5.0 μM), the neutrophils (3.5 × 10^5) were harvested and centrifuged (1500 r.p.m., 10 min, 4 °C), washed once with cold PBS and resuspended in 400 μL of PBS. A 5 μL aliquot of PI solution (50 μg/mL) was added to the cell suspension. After 15 min of incubation with PI at room temperature, cells were analyzed by BD FACSCalibur flow cytometer (BD Biosciences, San Jose, CA, USA), and 10,000 events were recorded per sample.
# [5] = test system: CCL2 secretion by LPS-stimulated human neutrophils; assay: CCL2 release, ELISA; format: cell-based; conditions: 0.5, 1.0 and 2.5 µM, 24 h after LPS stimulation
# Protocol: as §1, §2
# MCF-7 cell line = test system: MCF-7 cell line; parameters: method as in PMID 30127485; conditions: cited from earlier work
# [6] = test system: TNF-α secretion by LPS-stimulated human neutrophils; assay: TNF-α release, ELISA; format: cell-based
# Protocol: as §1, §2
# HaCaT = assay: LDH cell viability assay, keratinocytes; format: cell-based, human; conditions: Homo sapiens, 24 h, LDH assay, read-out: IC50
# Protocol: (§3) Normal prostate epithelial cells (PNT2), two prostate cancer cell lines (Du145 and PC3), human keratinocytes (HaCaT), two melanoma cell lines (A375 and HTB140) and two colon cancer cell lines (HT29 and Caco-2) were treated with 3 at a concentration range 1.0–50.0 µg/mL. Viability of the cells was estimated using lactate dehydrogenase (LDH) assay.
# (§4) Cytotoxic activity of 3 was tested on human cancer and normal cells, grouped in three panels: prostate, skin and gastrointestinal. The prostate panel comprised prostate cancer cell lines DU145 (ATCC HTB-81) and PC3 (ATCC CRL-1435) and prostate normal epithelial cells PNT2 (ECACC 95012613). Melanoma cell lines A375 (ATCC CRL-1619) and HTB140 (ATCC Hs 294T) together with human keratinocytes HaCaT (obtained as a kind gift of Prof. Marta Michalik, Department of Cell Biology, Jagiellonian University) were included in the skin panel. Two colon cancer cell lines, namely Caco-2 (ATCC HTB-37) and HT29 (ATCC HTB-38), constituted the gastrointestinal panel. Du145 cells were grown in a modified Eagle’s medium with low (1.0 g/L) glucose concentration; HT29, PC3 and PNT-2 cells were grown in Dulbecco’s modified Eagle’s medium (DMEM) and F12 HAM Nutrient Mixture; Caco-2 cells were grown in modified Eagle’s medium with nonessential amino acids (NEAA); and melanoma cells and keratinocytes were maintained in modified Eagle’s medium with high (4.5 g/L) glucose concentration. The culture media contained antibiotics and 10% fetal bovine serum (FBS). All cultures were maintained at 37 °C in a humidified, 5% CO2-containing atmosphere.
# (§5) The examined compound (3) was diluted in the culture media from freshly made stock solution in MeOH (10 mg/mL) to the working concentrations (from 0 to 50 μg/mL). Cell viability was determined as described previously. […] Then, the culture medium was replaced with the medium containing different concentrations of the assessed compound (1–50 μg/mL). After 24 h of incubation, the viability of the cells was determined using colorimetric lactate dehydrogenase (LDH) assay in comparison to the controls to which corresponding aliquots of MeOH diluted with culture media were added. Cells grown in the medium without the tested compound were used as control I (negative), and the positive control (control II) was obtained by incubation of the cells in the medium containing 1% Triton X-100. LDH released from the damaged cells into the cell culture medium was quantified by measuring the absorbance at 490 nm using a Synergy II Biotek microplate reader. Cytotoxicities of the examined compounds were calculated as follows: ((absorbance of the tested sample−absorbance of control I)/(absorbance of control II−absorbance of control I)) × 100. Results were means of three independent measurements (± SD). Doxorubicin (Ebewe Pharma G.m.b.H., Unterach, Austria) was used as a reference cytostatic drug.
# [7] = test system: normal and cancer cell lines (prostate, skin, gastrointestinal panels); assay: LDH cytotoxicity, whole panel of normal and cancer cell lines; format: cell-based; conditions: Homo sapiens; 24 h treatment, cell density 1.5 × 10^4; doxorubicin: except PC3 cells; read-out: IC50 range over the cell lines
# Protocol: Cytotoxic activity of 3 was tested on human cancer and normal cells, grouped in three panels: prostate, skin and gastrointestinal. The prostate panel comprised prostate cancer cell lines DU145 (ATCC HTB-81) and PC3 (ATCC CRL-1435) and prostate normal epithelial cells PNT2 (ECACC 95012613). Melanoma cell lines A375 (ATCC CRL-1619) and HTB140 (ATCC Hs 294T) together with human keratinocytes HaCaT (obtained as a kind gift of Prof. Marta Michalik, Department of Cell Biology, Jagiellonian University) were included in the skin panel. Two colon cancer cell lines, namely Caco-2 (ATCC HTB-37) and HT29 (ATCC HTB-38), constituted the gastrointestinal panel. […]
# The examined compound (3) was diluted in the culture media from freshly made stock solution in MeOH (10 mg/mL) to the working concentrations (from 0 to 50 μg/mL). Cell viability was determined as described previously. […] Then, the culture medium was replaced with the medium containing different concentrations of the assessed compound (1–50 μg/mL). After 24 h of incubation, the viability of the cells was determined using colorimetric lactate dehydrogenase (LDH) assay in comparison to the controls to which corresponding aliquots of MeOH diluted with culture media were added. […] LDH released from the damaged cells into the cell culture medium was quantified by measuring the absorbance at 490 nm using a Synergy II Biotek microplate reader. […]
# PC3 = assay: LDH cell viability assay, prostate cancer cells; format: cell-based; conditions: Homo sapiens, PC-3; PC3, 24 h, LDH assay; read-out: IC50
# Protocol: as §3, §4, §5
# A375 = assay: LDH cell viability assay, melanoma cells; format: cell-based; conditions: Homo sapiens, A-375; A375, 24 h, LDH assay; read-out: IC50
# Protocol: as §3, §4, §5
# HTB140 = assay: LDH cell viability assay, melanoma cells; format: cell-based; conditions: Homo sapiens; HTB140, 24 h, LDH assay; read-out: IC50
# Protocol: as §3, §4, §5
# PC3 cells = test system: PC3 cells; parameters: method as in PMID 33968193; conditions: cited from earlier work
# HepG2 cells = test system: HepG2 cells; parameters: method as in PMID 35520265; conditions: cited from earlier work
compound,measurement,setting,value
"2α,5-epoxy-5,10-dihydroxy- 6α-angeloyloxy-9β-(3-methylbutyryloxy)-germacran-8α,12-olide",NF-κB inhibitory effect,NF-κB; concentration range 1–10 μM,NF-κB inhibitory effect was shown
same,IC50,cancer cells,> 7.6 µM
"2β,5-epoxy-5,10-dihydroxy-6α-angeloyloxy-9β-isobutyryloxy-germacran-8α,12-olide",NF-κB inhibitory effect,NF-κB; concentration of 10 μM,NF-κB inhibitory effect was shown
same,IC50,cancer cells,> 7.9 µM
"C=C1C(=O)O[C@H]2[C@H]1[C@@H](O)[C@H](OC(=O)C(C)CC)[C@H](C)CCC(=O)[C@](C)(O)[C@@H]2OC(=O)/C(C)=C\C (stereo partly drawn) [Compound 1, 4β,8α-dihydroxy-5β-angeloyloxy-9β-(2-methylbutyryloxy)-3-oxo-germacran-6α,12-olide]",IC50,U-2 OS; 24 h,7.77 µM
same,IC50,U-2 OS; 48 h,5.1 µM
same,IL-8 production upon LPS stimulation,[1],significant and dose-dependent inhibition
same,IL-1β production upon LPS stimulation,[2],significant and dose-dependent inhibition
same,ROS generation,[3],significantly and dose-dependently reduced ROS generation
same,IC50,"SAOS-2; SAOS-2, 24 h",9.11 µM
same,IC50,"SAOS-2; SAOS-2, 48 h",6.76 µM
same,Cytotoxicity to PMNs (propidium iodide staining),[4],nontoxic
same,CCL2 production upon LPS stimulation,[5],significant and dose-dependent inhibition
same,Cytotoxicity,MCF-7 cell line,resistant
same,TNF-α secretion,[6]; lowest concentration (0.5 μM),could not be achieved
same,TNF-α release,"[6]; only in the two higher concentrations (1.0 and 2.5 μM), 24 h after LPS stimulation",statistically significant reduction
"C=C1C(=O)O[C@H]2[C@H]1[C@@H](O)[C@H](OC(=O)CC(C)C)[C@H](C)CCC(=O)[C@](C)(O)[C@@H]2OC(=O)/C(C)=C\C [Compound 2, 4β,8α-dihydroxy-5β-angeloyloxy-9β-(3-methylbutyryloxy)-3-oxo-germacran-6α,12-olide]",IC50,U-2 OS; 24 h,3.18 µM
same,IC50,U-2 OS; 48 h,2.52 µM
same,IL-8 production upon LPS stimulation,[1],significant and dose-dependent inhibition
same,IL-1β production upon LPS stimulation,[2],significant and dose-dependent inhibition
same,ROS generation,[3],significantly and dose-dependently reduced ROS generation
same,IC50,"SAOS-2; SAOS-2, 24 h",5.21 µM
same,IC50,"SAOS-2; SAOS-2, 48 h",3.57 µM
same,Cytotoxicity to PMNs (propidium iodide staining),[4],nontoxic
same,CCL2 production upon LPS stimulation,[5],significant and dose-dependent inhibition
"COc1cccc2c1C(=O)c1c(O)c3c(c(O)c1C2=O)C[C@@](O)(C(=O)CO)C[C@@H]3O[C@H]1C[C@H](N)[C@H](O)[C@H](C)O1 [Doxorubicin, reference compound]",IC50,HaCaT,> 4.68 µg/mL
same,IC50,U-2 OS; 24 h,1.87 µM
same,IC50,U-2 OS; 48 h,0.17 µM
same,IC50,[7],1.1 to 10.5 µM
same,IC50,PC3,> 50 µg/mL
same,IC50,A375,0.59 ± 0.04 µg/mL
same,IC50,HTB140,> 5.71 µg/mL
same,IC50,"SAOS-2; SAOS-2, 24 h",4.36 µM
same,IC50,"SAOS-2; SAOS-2, 48 h",0.08 µM
"C=C1C(=O)O[C@H]2[C@H]1[C@@H](OC(=O)C(C)C)C(=O)[C@H](C)CCC[C@](C)(O)[C@@H]2OC(=O)C(C)C [incaspitolide A, Incaspitolide A]",Apoptosis induction,PC3 cells,appeared to induce apoptosis
Cardivarolide H,Apoptosis induction,HepG2 cells,appeared to induce apoptosis

# — PMC8347481, “Germacranolides from Carpesium divaricatum: Some New Data on Cytotoxic and Anti-Inflammatory Activity” (Molecules, 2021)
